Values quoted from earlier work in patent US6451782B1, “Use of 4-androstene-3alpha,17 beta-diol to increase testosterone levels in humans” (priority 2002, dated 2002).
Read-outs that look alike come from different tables or passages of the source.

Legend:
[1] = humans
[2] = in-vitro, rat liver preparations
[3] = in-vitro, chicken liver preparations
[4] = humans, intravenous, radio-labeled, urinary metabolites

Row | SMILES | time to peak concentration of active hormone (testosterone) ([1]; after administration of the precursor) [min] | period over which testosterone concentrations subsequently decline ([1]; after the peak) | identified metabolites [2] | identified metabolites [3] | metabolic relationship to testosterone [4] | pathway of metabolism to androstane metabolites [4]
1 | C[C@]12CC[C@H]3[C@@H](CCC4=CC(O)CC[C@@]43C)[C@@H]1CC[C@@H]2O (stereo partly drawn) [4-androstene-3,17beta-diol] | ≤ 90 | three to four | androstenedione, epitestosterone and testosterone | androstenedione, epitestosterone and testosterone | direct precursor relationship to testosterone | 
2 | C[C@]12CC[C@H]3[C@@H](CCC4=C[C@H](O)CC[C@@]43C)[C@@H]1CC[C@@H]2O [4-androstene-3alpha, 17beta-diol] |  |  | androstenedione, epitestosterone and testosterone | androstenedione, epitestosterone and testosterone | direct precursor relationship to testosterone | involved first its conversion to a 3-keto steroid
